# According to patent US12129221B2, “Difluoro phenyl amide RIP1 inhibitor” (SIRONAX LTD, priority 2018, dated 2024):
# Read-outs that look alike come from different tables or passages of the source.
# Experiments:
# [1] = Prodrug enhanced metabolic stability: PK; type: in vivo; parameters: key: +, Extrapolated
# Source text: (§1) Prodrug Enhanced Metabolic Stability: Liver Microsome (L), Hepatocyte (H) and PK
# necrosis = assay: Necrosis inhibitory activity (cell necrosis / cell viability assay); type: cell-based; conditions: for EC50: read-out: EC50
# Source text: Necrosis Inhibitory Activity
# Representative IC50 of hRIP1 Kinase Assay Correlated with Our IC50 of Cell Necrosis Assay: […]
# [2] = Prodrug enhanced metabolic stability: liver microsome (L); type: in vitro ADME; parameters: key: +, Extrapolated
# Source text: as §1
# [3] = Prodrug enhanced metabolic stability: hepatocyte (H); type: in vitro ADME; parameters: key: +, Extrapolated
# Source text: as §1
# ferroptosis = assay: Ferroptosis inhibitor activity; type: cell-based; conditions: 1 uM threshold activity extrapolated
# Source text: Ferroptosis Inhibitor Activity 1 Um Threshold Activity Extrapolated
# [4] = Necrosis Inhibitory Activity, given as range
PK [1],L [2],H [3],EC50 (ferroptosis),Structure (SMILES),EC50(nM) (necrosis; Active Pro-drugs),EC50 (necrosis; Active Pro-drugs),EC50 (necrosis; [4])
+,+,+,–,"CCC(C)(C)C(=O)N(Cc1ccccc1)OC(=O)N1CCCCC1 [Compound 56, N-benzyl-2,2-dimethyl-N-((piperidine-1-carbonyl)oxy)butanamide]",weak,–,–
+,+,+,–,"CCC(C)(C)C(=O)N(Cc1ccccc1)OC(=O)Oc1ccccc1 [Compound 58, N-benzyl-2,2-dimethyl-N-((phenoxycarbonyl)oxy)butanamide]",–,45.1 nM,–
+,+,+,–,"CCC(C)(C)C(=O)N(Cc1ccccc1)OC(=O)C(C)(C)C [Compound 77, N-benzyl-2,2-dimethyl-N-(pivaloyloxy)butanamide]",–,6830 nM,–
+,+,+,–,"CCC(C)(C)C(=O)N(Cc1ccccc1)OC(=O)CCC(=O)ON(Cc1ccccc1)C(=O)C(C)(C)CC [Compound 53, N,N′-(succinylbis(oxy))bis(N-benzyl-2,2-dimethylbutanamide)]",–,85.5 nM,–
+,+,+,–,"CCC(C)(C)C(=O)N(Cc1ccccc1)OC(=O)[C@@H](N)CO [Compound 83, N-((L-seryl)oxy)-N-benzyl-2,2-dimethylbutanamide]",–,898 nM,–
+,+,+,–,"CCC(C)(C)C(=O)N(Cc1ccccc1)OCOC(=O)C(C)(C)C [Compound 63, ((N-benzyl-2,2-dimethylbutanamido)oxy)methyl pivalate]",–,62.9 nM,–
+,+,+,–,"CCC(C)(C)C(=O)N(Cc1ccccc1)OC(=O)N1CCC(N2CCCCC2)CC1 [Compound 57, N-(([1,4′-bipiperidine]-1′-carbonyl)oxy)-N-benzyl-2,2-dimethylbutanamide]",weak,–,–
+,+,+,–,"CCC(C)(C)C(=O)N(Cc1ccccc1)OC(=O)c1cccc(C(=O)ON(Cc2ccccc2)C(=O)C(C)(C)CC)c1 [Compound 54, N,N′-(isophthaloylbis(oxy))bis(N-benzyl-2,2-dimethylbutanamide)]",–,466 nM,–
+,+,+,–,"CCC(C)(C)C(=O)N(Cc1ccccc1)OC(=O)CC(=O)ON(Cc1ccccc1)C(=O)C(C)(C)CC [Compound 52, N,N′-(malonylbis(oxy))bis(N-benzyl-2,2-dimethylbutanamide)]",–,42.2 nM,–
–,–,–,1 to 10 µM,"[2H]CC([2H])C(C)(C)C(=O)N(O)C([2H])([2H])c1c([2H])c([2H])c([2H])c([2H])c1[2H] (stereo not drawn) [Compound 31, N-hydroxy-2,2-dimethyl-N-((phenyl-d5)methyl-d2)butanamide-3,4-d2]",–,–,1 to 1000 nM
+,+,+,–,"CCC(C)(C)C(=O)N(Cc1ccccc1)OC(=O)c1ccccc1 [Compound 51, N-(benzoyloxy)-N-benzyl-2,2-dimethylbutanamide]",–,284 nM,–
+,+,+,–,"CCC(C)(C)C(=O)N(Cc1ccccc1)OC(=O)CCCC[C@@H]1SC[C@@H]2NC(=O)N[C@@H]21 [Compound 72, N-benzyl-2,2-dimethyl-N-((5-((3aS,4S,6aR)-2-oxohexahydro-1H-thieno[3,4-d]imidazol-4-yl)pentanoyl)oxy)butanamide]",–,159 nM,–
+,+,+,–,"CCC(C)(C)C(=O)N(Cc1ccccc1)OCc1ccc(O)cc1 [Compound 73, N-benzyl-N-((4-hydroxybenzyl)oxy)-2,2-dimethylbutanamide]",–,489 nM,–
–,–,–,1 to 10 µM,"CCC(C)(C)C(=O)N(O)Cc1cc(F)ccc1F [Compound 14, N-(2,5-difluorobenzyl)-N-hydroxy-2,2-dimethylbutanamide]",–,–,1 to 1000 nM
+,+,+,–,"CCC(C)(C)C(=O)N(Cc1ccccc1)OP(=O)(O)O [Compound 71, ((N-benzyl-2,2-dimethylbutanamido)oxy)phosphonic acid]",–,28.7 nM,–
+,+,+,–,"CCC(C)(C)C(=O)N(Cc1ccccc1)OC(=O)[C@@H]1CCCN1C(=O)OC(C)(C)C [Compound 81, tert-butyl (S)-2-(((N-benzyl-2,2-dimethylbutanamido)oxy)carbonyl)pyrrolidine-1-carboxylate]",–,3250 nM,–
–,–,–,1 to 10 µM,"O=C(C1CCN(c2ncc(F)cn2)CC1)N(O)Cc1ccc(F)cc1 [Compound 85, N-(4-fluorobenzyl)-1-(5-fluoropyrimidin-2-yl)-N-hydroxypiperidine-4-carboxamide]",–,–,1000 to 10000 nM
+,+,+,–,"[2H]CC([2H])C(C)(C)C(=O)N(Cc1cc(F)cc(F)c1)OC(=O)c1cccnc1 (stereo not drawn) [Compound 62, N-(3,5-difluorobenzyl)-2,2-dimethyl-N-(nicotinoyloxy)butanamide-3,4-d2]",–,45.3 nM,–
+,+,+,–,"CCC(C)(C)C(=O)N(Cc1ccccc1)OC(=O)[C@@H](N)C(C)C [Compound 80, N-((L-valyl)oxy)-N-benzyl-2,2-dimethylbutanamide]",–,24.2 nM,–

PK [1],L [2],H [3],EC50 (ferroptosis),Structure (SMILES),EC50(nM) (necrosis; Active Pro-drugs),EC50 (necrosis; Active Pro-drugs),EC50 (necrosis; [4])
–,–,–,1 to 10 µM,"CC(C)(C(=O)N(O)Cc1ccccc1)C(F)(F)F [Compound 6, N-benzyl-3,3,3-trifluoro-N-hydroxy-2,2-dimethylpropanamide]",–,–,1 to 1000 nM
+,+,+,–,"[2H]CC([2H])C(C)(C)C(=O)N(Cc1cc(F)cc(F)c1)OC(=O)OCCOC (stereo not drawn) [Compound 65, N-(3,5-difluorobenzyl)-N-(((2-methoxyethoxy)carbonyl)oxy)-2,2-dimethylbutanamide-3,4-d2]",–,37.2 nM,–
+,+,+,–,"CCC(C)(C)C(=O)N(Cc1ccccc1)OCOP(=O)(OCc1ccccc1)OCc1ccccc1 [Compound 69, dibenzyl (((N-benzyl-2,2-dimethylbutanamido)oxy)methyl) phosphate]",weak,–,–
–,–,–,1 to 10 µM,"CCC(C)(C)C(=O)N(O)Cc1c(F)c(F)c(F)c(F)c1F [Compound 11, N-hydroxy-2,2-dimethyl-N-((perfluorophenyl)methyl)butanamide]",–,–,1000 to 10000 nM
–,–,–,1 to 10 µM,"CCC1(C(=O)N(O)Cc2ccc(Cl)cc2)CC1 [Compound 40, N-(4-chlorobenzyl)-1-ethyl-N-hydroxycyclopropane-1-carboxamide]",–,–,1000 to 10000 nM
–,–,–,1 to 10 µM,"CC(C)(C(=O)N(O)Cc1ccc(F)cc1)C(F)(F)F [Compound 43, 3,3,3-trifluoro-N-(4-fluorobenzyl)-N-hydroxy-2,2-dimethylpropanamide]",–,–,1 to 1000 nM
–,–,–,1 to 10 µM,"CCC1(C(=O)N(O)Cc2cc(F)cc(F)c2)CC1 [Compound 41, N-(3,5-difluorobenzyl)-1-ethyl-N-hydroxycyclopropane-1-carboxamide]",–,–,1000 to 10000 nM
–,–,–,1 to 10 µM,"CCC(C)(C)C(=O)N(O)Cc1cc(F)cc(Cl)c1 [Compound 17, N-(3-chloro-5-fluorobenzyl)-N-hydroxy-2,2-dimethylbutanamide]",–,–,1 to 1000 nM
–,–,–,1 to 10 µM,"CCC(C)(C)C(=O)N(O)Cc1ccccc1Cl [Compound 3, N-(2-chlorobenzyl)-N-hydroxy-2,2-dimethylbutanamide]",–,–,1 to 1000 nM
–,–,–,1 to 10 µM,"[2H]C([2H])C([2H])([2H])C(C)(C)C(=O)N(O)Cc1ccc(F)cc1 [Compound 29, N-(4-fluorobenzyl)-N-hydroxy-2,2-dimethylbutanamide-3,3,4,4-d4]",–,–,1 to 1000 nM
–,–,–,1 to 10 µM,"CC1(C(C)(C)C(=O)N(O)Cc2ccccc2)CC1 [Compound 32, N-benzyl-N-hydroxy-2-methyl-2-(1-methylcyclopropyl) propanamide]",–,–,1 to 1000 nM
–,–,–,1 to 10 µM,"CCC(C)(C)C(=O)N(O)Cc1cccc(F)c1 [Compound 2, N-(3-fluorobenzyl)-N-hydroxy-2,2-dimethylbutanamide]",–,–,1 to 1000 nM
–,–,–,1 to 10 µM,"CCC(C)(C)C(=O)N(O)Cc1ccc(Br)cc1 [Compound 18, N-(4-bromobenzyl)-N-hydroxy-2,2-dimethylbutanamide]",–,–,1 to 1000 nM
–,–,–,1 to 10 µM,"CCC(C)(C)C(=O)N(O)Cc1cccc(Cl)c1 [Compound 4, N-(3-chlorobenzyl)-N-hydroxy-2,2-dimethylbutanamide]",–,–,1 to 1000 nM
–,–,–,1 to 10 µM,"CCC1(C(=O)N(O)Cc2ccc(F)cc2)CC1 [Compound 39, 1-ethyl-N-(4-fluorobenzyl)-N-hydroxycyclopropane-1-carboxamide]",–,–,1000 to 100000 nM
–,–,–,1 to 10 µM,"CCC(C)(C)C(=O)N(O)Cc1cc(F)cc(C#N)c1 [Compound 12, N-(3-cyano-5-fluorobenzyl)-N-hydroxy-2,2-dimethylbutanamide]",–,–,1 to 1000 nM
–,–,–,1 to 10 µM,"CC1(C(=O)N(O)Cc2ccccc2)CCCCC1 [Compound 36, N-benzyl-N-hydroxy-1-methylcyclohexane-1-carboxamide]",–,–,1 to 1000 nM
–,–,–,1 to 10 µM,"CCC(C)(C)C(=O)N(O)Cc1ccccc1F [Compound 1, N-(2-fluorobenzyl)-N-hydroxy-2,2-dimethylbutanamide]",–,–,1 to 1000 nM

Structure (SMILES),PK [1],L [2],H [3],EC50 (ferroptosis),EC50(nM) (necrosis; Active Pro-drugs),EC50 (necrosis; Active Pro-drugs),EC50 (necrosis; [4])
"CCC(C)(C)C(=O)N(Cc1ccccc1)OC(=O)OCC(C)C [Compound 59, N-benzyl-N-((isobutoxycarbonyl)oxy)-2,2-dimethylbutanamide]",+,+,+,–,–,44.8 nM,–
